Six compounds from patent US20070213283A1, “Macrolides substituted at the 4"-position” (priority 2003, published 2007) can be followed below.

Test in all cases: MIC, standard broth dilution method in microtitre
What all share (assay type): cell-based

The test system of one experiment is S. pyogenes 3565. The conditions noted are these: Streptococcus pyogenes. As for the experimental part:
(§1) Using a standard broth dilution method in microtitre, compounds were tested for antibacterial activity. The compounds in the above examples gave minimum inhibitory concentrations (MICs) less than 1 microgram per millilitre against erythromycin-sensitive and erythromycin-resistant strains of Streptococcus pneumoniae and Streptococcus pyogenes.
(§2) In addition, the MIC (μg/mL) of test compounds against various organisms was determined including:
(§3) S. aureus Smith ATCC 13709, S. pneumoniae SP030, S. pyogenes 3565, E. faecalis ATCC 29212, H. influenzae ATCC 49247, M. catarrhalis ATCC 23246.

The test system of the next experiment is H. influenzae ATCC 49247. The conditions noted are these: Haemophilus influenzae, ATCC49247; H. influenzae ATCC 49247; broth dilution in microtitre; read-out: MIC. As for the experimental part: as §1, §2, §3
The test system of a further experiment is E. faecalis ATCC 29212. The settings on record: Enterococcus faecalis, ATCC29212. How it is done: as §1, §2, §3
Experiment [1] concerns M. catarrhalis ATCC 23246. The settings on record: Moraxella catarrhalis, ATCC23246. How it is done: as §1, §2, §3
Experiment [2] has as its system S. aureus Smith ATCC 13709. The settings on record: Staphylococcus aureus, ATCC13709. How it is done: as §1, §2, §3
Another experiment relates to S. pneumoniae SP030. The settings on record: Streptococcus pneumoniae. How it is done:
as §1, §2, §3

In experiment [3] the test system is erythromycin resistant strains of Streptococcus pneumoniae. How it is done: as §1
In experiment [4] the test system is erythromycin resistant strains of Streptococcus pyogenes. How it is done: as §1

Regarding `CC[C@@H]1OC(=O)[C@H](C)[C@H](O[C@@H]2C[C@](C)(OC)[C@H](OC(=O)CCNCCOc3ccc4c(=O)c(C(=O)O)cn(CC)c4c3)[C@H](C)O2)[C@@H](C)[C@H](O[C@@H]2O[C@H](C)C[C@H](N(C)C)[C@@H]2O)[C@](C)(OC)C[C@H](C)C(=O)[C@H](C)[C@@H](O)[C@]1(C)O` [Example 17, 4″-O-{3-[2-(3-Carboxy-1-ethyl-4-oxo-1,4-dihydro-7-quinolinyloxy)ethylamino]propionyl}-6-O-methyl-erythromycin A], the MIC was ≤ 1 µg/mL against S. pyogenes 3565; ≤ 2 µg/mL in the experiment with H. influenzae ATCC 49247; ≤ 1 µg/mL against E. faecalis ATCC 29212; ≤ 2 µg/mL in experiment [1]; ≤ 1 µg/mL in experiment [2]; ≤ 1 µg/mL in the experiment on S. pneumoniae SP030. Besides, the MIC in experiment [3] and in experiment [4] was ≤ 0.25 µg/mL each time.
Take `CC[C@H]1OC(=O)[C@H](C)[C@@H](O[C@H]2C[C@@](C)(OC)[C@@H](OC(=O)CCOCCNc3cc4c(=O)c(C(=O)O)cn(C5CC5)c4cc3Cl)[C@H](C)O2)[C@@H](C)[C@@H](O[C@@H]2O[C@H](C)C[C@H](N(C)C)[C@H]2O)[C@](C)(O)C[C@@H](C)CN(C)[C@H](C)[C@@H](O)[C@]1(C)O` [Example 18, 4″-O-{3-[2-(3-Carboxy-7-chloro-1-cyclopropyl-4-oxo-1,4-dihydro-4-quinolinylamino)ethoxy]propionyl}-azithromycin]: the MIC in the experiment on S. pyogenes 3565 was ≤ 1 µg/mL; with H. influenzae ATCC 49247, ≤ 2 µg/mL; against E. faecalis ATCC 29212, ≤ 1 µg/mL; in experiment [1] it was ≤ 2 µg/mL; in experiment [2], ≤ 1 µg/mL; against S. pneumoniae SP030, ≤ 1 µg/mL. Moreover, the MIC in experiment [3] and in experiment [4] was ≤ 0.25 µg/mL each time.
`CC[C@H]1OC(=O)[C@H](C)[C@@H](O[C@H]2C[C@@](C)(OC)[C@@H](OC(=O)CCOCCNc3ccc4c(c3)c(=O)c(C(=O)O)cn4C3CC3)[C@H](C)O2)[C@@H](C)[C@@H](O[C@@H]2O[C@H](C)C[C@H](N(C)C)[C@H]2O)[C@](C)(O)C[C@@H](C)CN(C)[C@H](C)[C@@H](O)[C@]1(C)O` [Example 19, 4″-O-{3-[2-(3-Carboxy-1-cyclopropyl-4-oxo-1,4-dihydro-6-quinolinylamino)ethoxy]propionyl}-azithromycin]: the MIC was ≤ 1 µg/mL in the experiment on S. pyogenes 3565; ≤ 2 µg/mL with H. influenzae ATCC 49247; ≤ 1 µg/mL in the experiment on E. faecalis ATCC 29212; ≤ 2 µg/mL in experiment [1]; ≤ 1 µg/mL in experiment [2]; ≤ 1 µg/mL in the experiment with S. pneumoniae SP030. Besides, the MIC in experiment [3] and in experiment [4] was ≤ 0.25 µg/mL each time.
`CC[C@H]1OC(=O)[C@H](C)[C@@H](O[C@H]2C[C@@](C)(OC)[C@@H](OC(=O)CCOCCNc3cc4c(=O)c(C(=O)O)cn(C5CC5)c4cc3Cl)[C@H](C)O2)[C@H](C)[C@@H](O[C@@H]2O[C@H](C)C[C@H](N(C)C)[C@H]2O)[C@](C)(O)C[C@@H](C)CN(C)[C@H](C)[C@@H](OC)[C@]1(C)O` [Example 23, 4″-O-{3-[2-(3-Carboxy-7-chloro-1-cyclopropyl-4-oxo-1,4-dihydro-6-quinolinylamino)ethoxy]propionyl}-11-O-methyl-azithromycin]: the MIC in the experiment on S. pyogenes 3565 is ≤ 1 µg/mL; in the experiment on H. influenzae ATCC 49247, ≤ 2 µg/mL; against E. faecalis ATCC 29212, ≤ 1 µg/mL; in experiment [1], ≤ 2 µg/mL; in experiment [2] it was ≤ 1 µg/mL; in the experiment with S. pneumoniae SP030, ≤ 1 µg/mL. In addition, the MIC in experiment [3] and in experiment [4] was ≤ 0.25 µg/mL throughout.
Consider `CC[C@H]1OC(=O)[C@H](C)[C@@H](O[C@H]2C[C@@](C)(OC)[C@@H](OC(=O)CCOCCOc3cc4c(=O)c(C(=O)O)cn(C5CC5)c4cc3Cl)[C@H](C)O2)[C@H](C)[C@@H](O[C@@H]2O[C@H](C)C[C@H](N(C)C)[C@H]2O)[C@](C)(O)C[C@@H](C)CN(C)[C@H](C)[C@@H](O)[C@]1(C)O` [Example 27, 4″-O-{3-[2-(3-Carboxy-7-chloro-1-cyclopropyl-4-oxo-1,4-dihydro-quinolin-6-yloxy)ethoxy]-propionyl}-azithromycin], for which the MIC is ≤ 1 µg/mL against S. pyogenes 3565; ≤ 2 µg/mL in the experiment with H. influenzae ATCC 49247; ≤ 1 µg/mL with E. faecalis ATCC 29212; ≤ 2 µg/mL in experiment [1]; ≤ 1 µg/mL in experiment [2]; ≤ 1 µg/mL against S. pneumoniae SP030. The MIC in experiment [3] and in experiment [4] was ≤ 0.25 µg/mL each time.
On to `CC[C@H]1OC(=O)[C@H](C)[C@@H](O[C@H]2C[C@@](C)(OC)[C@@H](OC(=O)CCOCCOc3ccc4c(c3)c(=O)c(C(=O)O)cn4C3CC3)[C@H](C)O2)[C@H](C)[C@@H](O[C@@H]2O[C@H](C)C[C@H](N(C)C)[C@@H]2O)[C@](C)(O)C[C@@H](C)CN(C)[C@H](C)[C@@H](O)[C@]1(C)O` [Example 29, 4″-O-{3-[2-(3-Carboxy-1-cyclopropyl-4-oxo-1,4-dihydro-quinolin-6-yloxy)-ethoxy]-propionyl}-azithromycin], for which the MIC is ≤ 1 µg/mL in the experiment on S. pyogenes 3565; ≤ 2 µg/mL in the experiment with H. influenzae ATCC 49247; ≤ 1 µg/mL with E. faecalis ATCC 29212; ≤ 2 µg/mL in experiment [1]; ≤ 1 µg/mL in experiment [2]; ≤ 1 µg/mL in the experiment on S. pneumoniae SP030. For the same compound, the MIC in experiment [3] and in experiment [4] was ≤ 0.25 µg/mL in each case.
